Measured values: US4876281A, “Antifungal agents” (Wakunaga Seiyaku Kabushiki Kaisha, priority 1986, dated 1989)
Converted amounts (≈) assume the structure as drawn. Like-named read-outs stand apart in the source and are kept apart here.

Key:
Aspergillus niger = test: 95% growth inhibitory concentration, Aspergillus niger; type: cell-based, Aspergillus niger IFO 9455; conditions: IFO9455, 72 h, read-out: 95% Growth inhibitory concentration, Aspergillus niger
Method: (§1) Strains for use in test: Candida albicans, IFO 1594 Aspergillus niger, IFO 9455
(§2) Culture medium: Liquid Sabouraud's medium (maltose 40 g, proteose peptone 10 g, distilled water 1000 ml)
(§3) Positive control: amphotericin B (Sigma) 5-fluorocytosine (Wako Junyaku, Japan)
(§4) A sample was diluted with culture medium to vary concentrations and poured into test tubes each to contain 5 ml, and a platinum loop of spores was inoculated in each tube. After shaken cultivation at 37° C. for 3 days, formalin (0.5 ml) was added and well mixed. The mixture was centrifuged at 3500 rpm for 10 minutes to collect fungi, which were in turn dewatered on a filter paper, dried at 100° C. for one hour and weighed. The growth rate was determined by the following equation [formula] 95% growth-inhibitory concentration (up to 5% growth rate): a mean value of sample concentrations producing 95% growth inhibitory effects.

platelet aggregation = conditions: literature; cited from earlier work
fungi = conditions: Japanese Patent Publication No. 263121/1987; cited from earlier work
Candida albicans = test: 95% growth inhibitory concentration, Candida albicans; type: cell-based, Candida albicans IFO 1594; conditions: read-out: 95% Growth inhibitory concentration, Candida albicans
Method: as §1, §2, §3
A culture resulting from shaken cultivation at 37° C. overnight was diluted 100-fold with the culture medium and used as seed culture.
A sample was diluted with the culture medium to vary concentrations and poured into test tubes each to contain 5 ml, and the seed culture (100 μl) was inoculated. After cultivation with shaking at 37° C. for 18 hours, formalin (0.5 ml) was added, thoroughly mixed, and diluted 10-fold with the culture medium. The resultant liquor was measured for absorbancy at 660 nm. The growth rate (%) was determined according to the equation [formula]
as §4

[1] = one week toxicity test, intraperitoneal; type: in vivo; conditions: 5 male ICR mice of 5 weeks age, dose not given
[2] = Aspergillus niger IFO 9455, liquid Sabouraud's medium, 37° C., 3 days, dry weight, up to 5% growth rate, mean value
[3] = IFO1594, Candida albicans IFO 1594, liquid Sabouraud's medium, 37° C., 18 hours, up to 5% growth rate, mean value

Row | Structure (SMILES) | IC95 (Aspergillus niger; [2]) [µg/mL] | IC95 (Candida albicans; [3]) [µg/mL] | further results
1 | CCOC(=O)CCCSSC=CC[S+]([O-])CCCC(=O)OCC (stereo not shown) [Compound 10] | 80.4 (≈ 210 µM) |  | 
2 | C=CCSSSC [methylallyltrisulfide] |  |  | platelet aggregation inhibitory activity (platelet aggregation): platelet aggregation inhibitory activity
3 | C=CCSSC=CC[S+]([O-])CC=C (stereo not shown) [ajoene] |  |  | platelet aggregation inhibitory activity (platelet aggregation): demonstrated to have platelet aggregation inhibitory activity; antifungal activity (fungi): has antifungal activity
4 | Nc1nc(=O)[nH]cc1F [5-fluorocytosine, reference compound] | 80 (≈ 620 µM) | 20 (≈ 155 µM) | 
5 | C=CCSSC=CCS(=O)(=O)CC=C [Compound 1] | 28.5 (≈ 114 µM) | 5.4 (≈ 21.6 µM) | mortality after one week [1]: no mortality was observed
6 | C[C@@H]1[C@H](O)[C@@H](C)/C=C/C=C/C=C/C=C/C=C/C=C/C=C/[C@H](O[C@@H]2O[C@H](C)[C@@H](O)[C@H](N)[C@@H]2O)C[C@@H]2O[C@](O)(C[C@@H](O)C[C@@H](O)[C@H](O)CC[C@@H](O)C[C@@H](O)CC(=O)O[C@H]1C)C[C@H](O)[C@H]2C(=O)O [Amphotericin B, reference compound] |  |  | IC95 (Candida albicans; Candida albicans, IFO1594, 18 h): 0.2 µg/mL (≈ 0.216 µM); IC95 (Aspergillus niger; Aspergillus niger): > 0.8 µg/mL
7 | C=CC[S+]([O-])CC=CSSC (stereo not shown) [Compound 17] | 49.1 (≈ 236 µM) | 40.7 (≈ 195 µM) | 
8 | C=CCSSC=CC[S+](C)[O-] (stereo not shown) [Compound 5] | 57.3 (≈ 275 µM) |  | 
9 | C=CCS(=O)(=O)CC=CSSCc1ccccc1 [Compound 16] | 42.2 (≈ 140 µM) |  | 
10 | C=CC[S+]([O-])SC=CCS(=O)(=O)CC=C (stereo not shown) [Compound 7] | 30.8 (≈ 116 µM) |  | 
